According to article PMC12686243, “Synthesis and preclinical evaluation of FAP-targeting radiotracers for PET and optical imaging” (EJNMMI Radiopharmacy and Chemistry, 2025):

Key:
[1] = target: T1, hFAPα, recombinant protein (Homo sapiens, UniProt Q12884); assay: fluorometric enzyme inhibition assay for FAP; type: biochemical; conditions: Morrison equation for tight binding inhibitors; substrate Ala-Pro-AMC; mean ± SD
T1 construct: purchased
T1 sequence (Q12884 1-760): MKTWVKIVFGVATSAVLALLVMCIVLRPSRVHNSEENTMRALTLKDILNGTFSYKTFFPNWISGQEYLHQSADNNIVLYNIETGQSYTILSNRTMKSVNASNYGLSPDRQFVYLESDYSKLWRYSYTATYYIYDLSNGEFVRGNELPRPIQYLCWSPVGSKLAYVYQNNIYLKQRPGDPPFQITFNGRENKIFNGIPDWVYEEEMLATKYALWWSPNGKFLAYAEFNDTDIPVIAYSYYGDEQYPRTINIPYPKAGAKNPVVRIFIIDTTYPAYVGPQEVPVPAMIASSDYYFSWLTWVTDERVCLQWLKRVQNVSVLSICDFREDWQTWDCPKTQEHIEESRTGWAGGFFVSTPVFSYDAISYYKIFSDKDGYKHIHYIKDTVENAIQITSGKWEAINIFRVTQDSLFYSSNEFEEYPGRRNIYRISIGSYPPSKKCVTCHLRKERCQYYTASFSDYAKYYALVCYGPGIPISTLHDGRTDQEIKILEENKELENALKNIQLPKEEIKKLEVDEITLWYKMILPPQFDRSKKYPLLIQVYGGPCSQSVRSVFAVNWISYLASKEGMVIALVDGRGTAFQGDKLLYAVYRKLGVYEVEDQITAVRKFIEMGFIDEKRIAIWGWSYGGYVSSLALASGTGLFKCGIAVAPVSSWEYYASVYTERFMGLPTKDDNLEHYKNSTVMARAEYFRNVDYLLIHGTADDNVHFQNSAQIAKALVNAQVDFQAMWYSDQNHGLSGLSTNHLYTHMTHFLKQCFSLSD
Method: Affinity towards FAP was tested using a commercially available fluorometric assay. At the day of the experiment, all tested compounds were diluted in assay buffer (DPP assay buffer, BPS Bioscience, San Diego, CA, USA,) in a 1:1 dilution series, resulting in eleven concentrations, ranging from 2000 nM to 1.950 nM, equal to 200 nM to 0.195 nM per well. The substrate Ala-Pro-AMC (BPS Bioscience, concentration per well: 5 μM, Km = 244 μM (Edosada et al. [2006])) was pipetted along with the inhibitor into a 96-well plate. Subsequently, the enzyme (hFAPα, recombinant protein) was dissolved in assay buffer and added to the wells. The final concentration of DMSO per well was 0.2%. The 96-well plate was immediately loaded into a multimode plate reader (Biotek Cytation 5, Agilent, Santa Clara, CA, USA). The fluorescence intensity for each well was measured over a time course of 30 min with measurement intervals of 15 s, an excitation wavelength of 360 ± 20 nm and an emission wavelength of 450 ± 20 nm. Data (relative fluorescence units, RFU) over the total measurement time was analyzed by linear regression. The slope of the resulting graphs was analyzed over the inhibitor concentration. The enzyme inhibition constant Ki was calculated using the Morrison equation for tight binding inhibitors (Williams and Morrison [1979]). […]

[2] = target: T2, human recombinant dipeptidylpeptidase IV (Homo sapiens, UniProt P27487); assay: fluorometric enzyme inhibition assay for DPPIV; type: biochemical
T2 construct: purchased Cayman Chemical
Method: The affinity towards DPPIV was determined using a commercially available inhibitor screening assay kit (Cayman Chemical, USA). The assay was performed according to the manufacturer’s instructions, and the data was analyzed as described above.

[3] = target: T3, hFAP (vital hFAP-HT1080 cells) (Homo sapiens, UniProt Q12884); assay: real-time binding (LigandTracer) to vital hFAP-HT1080 cells; conditions: fluorescent vs radioactive detection
T3 construct: expressed in transfected cells; host or cells: HT1080 (human fibrosarcoma), lentiviral transduction
T3 sequence (Q12884 1-760): T1 sequence (Q12884 1-760)
Method: To determine binding kinetics (association rate constant ka, dissociation rate constant kd, and thermodynamic dissociation constant KD), real-time assay systems (LigandTracer Yellow/White for radioactivity and Green with Red/NIR + and NIR + + /IR detectors for fluorescence; Ridgeview Instruments AB, Sweden) were utilized. In a 100 mm petri dish, cells or tissue sections in medium (3–4 mL total volume), are located on one side, while the radioactive or fluorescent signal is detected on the opposite, elevated side. Rotation on an inclined base in set intervals (30 s) allows continuous measurement of signal in the target (cells/tissue) against background area (no cells/tissue). Experiments were performed at room temperature, using CO2-independent medium, usually with 0.5–1% w/v bovine serum albumin, (#1ETA, Carl Roth, Germany). Association was determined through incubation with two distinct concentrations (between 1–5 and 4.5–10 nM, 60 min each, additive) for each compound. For that purpose, the same ligand preparation was typically employed for radioactive and fluorescent detection. This was followed by replacement with fresh medium and observation of dissociation for at least 2 h. Additionally, the dissociation rate constant was further investigated beyond 6 h, either using fluorescent detection or via gallium-67 (t1/2: 78.3 h). This approach provides reliable kinetic measurements in a 1:1 interaction setting, as previously shown (Onell and Andersson [2005]).
Binding data was evaluated using TraceDrawer (1.9.2, Ridgeview Instruments AB, Sweden). Traces were imported, potential spikes (> 100% sudden signal increases over previous datapoints) removed and each trace was normalized to its own baseline (= 0%) and highest value (= 100%, typically at the end of the second association phase). This allows comparing data across experiments and ultimately global fitting, without differences, e.g. of molar activity, affecting it. Typically, at least 3 individual traces per ligand, substrate and modality were recorded. Data was fitted in TraceDrawer using a 1:1 interaction model, with/without accounting for bulk effect. A 1:1 interaction is the simplest model, as it describes the binding of a ligand at a constant concentration to the target, with each one molecule of ligand binding to one molecule of target.

[4] = tested on: hFAP-HT1080 and WT-HT1080 xenografts; assay: in vivo fluorescence imaging of xenograft-bearing mice; set-up: species or system nude mice
Description: Female athymic NMRI-nude mice (Rj:NMRI-Foxn1nu, Janvier Labs, France or Charles River, Germany) between 8 and 20 weeks of age were used. Subsequently, the prepared cells (1.0–2.0 × 10^6 hFAP/WT-HT1080 per animal) were subcutaneously injected into the right and left thigh, respectively. Xenograft tissue for real-time binding experiments was derived from animals injected with both target-positive and negative cells, however only showing growth of one tumor entity. When approaching endpoints, mice were anesthetized and euthanized. The tumor was quickly removed, frozen in − 45 °C 2-methylbutane and stored in sealed tubes at − 80 °C.
Optical imaging was performed using a multimodal IVIS-CT (Perkin Elmer, USA). Compounds were injected [0.09 mg/kg (n = 1)/0.33 mg/kg (n = 3) for NODAGA-FAP647; 0.17 mg/kg (n = 3) for NODAGA-FAP800, diluted in 150 µL of sterile 0.9% NaCl solution] into the lateral tail vein, either directly or via catheter. Fluorescence imaging started ~ 2 min post injection for 2–3 h, with 1 min, 3–5 min and 10 min intervals, along with a white-light image. Additional scans were performed after 24 h and, if applicable, later. The fluorescence of the respective fluorophore was captured (NODAGA-FAP647: λEx/Em = 640/680 nm, NODAGA-FAP800: λEx/Em = 745/800 nm). Emitted fluorescence intensity was analyzed (Perkin Elmer, Living Image 4.7.4) in raw data images.

[5] = target: T4, hFAP (hFAP-HT1080 xenograft tissue sections) (Homo sapiens, UniProt Q12884); assay: real-time binding to frozen hFAP-HT1080 xenograft tissue sections; conditions: ^67Ga-labeled
T4 construct: expressed in transfected cells; host or cells: HT1080 (human fibrosarcoma), lentiviral transduction
T4 sequence (Q12884 1-760): T1 sequence (Q12884 1-760)
Method: HT1080 cells were chosen as cellular and xenograft models, due to their similarity to FAP expressing fibroblasts and its origin (fibrosarcoma). For that purpose, HT1080 wild-type cells (WT-HT1080; European Collection of Authenticated Cell Cultures, ECACC, United Kingdom) were used as control. Cells were cultured in DMEM with GlutaMax (#31966021, Gibco), supplemented with 10% v/v fetal bovine serum (#S0615 Sigma Aldrich, Germany), 1% penicillin/streptomycin (#15140–122, Gibco, USA), 1% Non-essential amino acids under normoxic (5% CO2; 37 °C) conditions. Upon reaching ~ 90% confluency, cells were passaged. Typically, cultures were discarded after ~ 20 passages. […] Prior to in vitro experiments, cells were washed, trypsinized (0.05% Trypsin–EDTA, Gibco, USA), taken up in medium and an aliquot was counted using a CASY1 cell counter (Model TT, Schaerfe System, Reutlingen, Germany). […]
To determine binding kinetics (association rate constant ka, dissociation rate constant kd, and thermodynamic dissociation constant KD), real-time assay systems (LigandTracer Yellow/White for radioactivity and Green with Red/NIR + and NIR + + /IR detectors for fluorescence; Ridgeview Instruments AB, Sweden) were utilized. In a 100 mm petri dish, cells or tissue sections in medium (3–4 mL total volume), are located on one side, while the radioactive or fluorescent signal is detected on the opposite, elevated side. […]

[6] = stability in human serum; type: in vitro ADME; conditions: 37 °C; for degradation in human serum: four-hour time point; for fraction of intact tracer: human serum, after 24 h
Method: Stability testing in human serum (Sigma Aldrich, Darmstadt, Germany) was carried out by incubation of the ^67Ga-labeled radiotracer at 37 °C. After defined time points an aliquot was withdrawn and the serum proteins precipitated, by dilution with “supersol” (20% v/v ethanol, 5% v/v 5 mM EDTA, 0.5% v/v Triton X-100, 0.1% m/v saponin in aqueous solution). After centrifugation, the supernatant was analyzed by radio-HPLC.

T2 sequence (P27487 whole entry): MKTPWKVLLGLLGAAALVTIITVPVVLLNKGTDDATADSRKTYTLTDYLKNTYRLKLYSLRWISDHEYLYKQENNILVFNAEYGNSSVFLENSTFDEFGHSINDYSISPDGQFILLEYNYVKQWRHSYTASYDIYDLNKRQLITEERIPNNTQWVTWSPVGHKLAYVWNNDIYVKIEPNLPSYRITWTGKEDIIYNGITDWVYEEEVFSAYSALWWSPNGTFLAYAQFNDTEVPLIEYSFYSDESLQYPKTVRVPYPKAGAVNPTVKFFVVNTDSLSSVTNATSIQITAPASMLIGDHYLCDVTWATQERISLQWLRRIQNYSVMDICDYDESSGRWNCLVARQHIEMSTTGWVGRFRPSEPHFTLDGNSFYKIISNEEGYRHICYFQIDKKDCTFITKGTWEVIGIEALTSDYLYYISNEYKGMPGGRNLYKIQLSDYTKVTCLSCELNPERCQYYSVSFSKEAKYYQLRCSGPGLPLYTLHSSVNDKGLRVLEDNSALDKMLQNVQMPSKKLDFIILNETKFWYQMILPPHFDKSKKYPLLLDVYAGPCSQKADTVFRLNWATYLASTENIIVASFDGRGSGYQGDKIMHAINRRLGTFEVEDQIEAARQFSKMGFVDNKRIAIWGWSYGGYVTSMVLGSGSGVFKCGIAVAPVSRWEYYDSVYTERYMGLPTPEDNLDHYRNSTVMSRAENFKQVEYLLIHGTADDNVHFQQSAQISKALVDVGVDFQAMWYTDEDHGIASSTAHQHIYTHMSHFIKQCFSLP

Row | SMILES | Ki [1] [nM] | IC50 [2] [nM] | faster association with fluorescent compared to radioactive detection [3] | faster dissociation with fluorescent compared to radioactive detection [3] | ratio hFAP-HT1080/muscle fluorescence ([4]; 120 min post injection) | ratio hFAP/WT-HT1080 tumor fluorescence ([4]; 120 min post injection) | fluorescence in hFAP-HT1080 tumor higher than in WT-HT1080 tumor or muscle ([4]; 24 h post injection) [%] | reduction of fluorescence signal in hFAP-HT1080 tumor ([4]; after 24 h post injection) [%] | WT-HT1080 to muscle ratio ([4]; over the imaging period) | time to plateau of fluorescence in hFAP-HT1080 tumor ([4]; post injection) | Kd [5] [nM] | degradation in human serum [6] | fraction of intact tracer [6] [%]
1 | CN(CCCN1CCN(C(=O)[C@H](CCCCNC(=O)CC[C@H](C(=O)O)N2CCN(CC(=O)O)CCN(CC(=O)O)CC2)NC(=O)CCOCCOCCOCCOCCNC(=O)CCCCCN2/C(=C/C=C3\CCCC(/C=C/C4=[N+](CCCCS(=O)(=O)[O-])c5ccc(S(=O)(=O)O)cc5C4(C)C)=C3Oc3ccc(S(=O)(=O)O)cc3)C(C)(C)c3cc(S(=O)(=O)O)ccc32)CC1)c1ccc2nccc(C(=O)NCC(=O)N3CC(F)(F)C[C@H]3C#N)c2c1 [NODAGA-FAP800] | 0.343 ± 0.153 | > 10000 | ~ 50% | ~ 30% | ~ 1.9 | ~ 2.2 | 60 | 43 | ~ 1 | ~ 20 min | – | – | –
2 | CN(CCCN1CCN(C(=O)[C@H](CCCCNC(=O)CC[C@H](C(=O)[O-])N2CCN(CC(=O)[O-])CCN(CC(=O)[O-])CC2)NC(=O)CCOCCOCCOCCOCCNC(=O)CCCCC[N+]2=C(C=CC=CC=C3N(CCCS(=O)(=O)O)c4ccc(S(=O)(=O)O)cc4C3(C)C)C(C)(CCCS(=O)(=O)O)c3cc(S(=O)(=O)[O-])ccc32)CC1)c1ccc2nccc(C(=O)NCC(=O)N3CC(F)(F)C[C@H]3C#N)c2c1.[67Ga+3] (stereo partly shown) [[^67Ga]Ga-NODAGA-FAP647] | – | – | – | – | – | – | – | – | – | – | 0.025 | no degradation | 56
3 | CN(CCCN1CCN(C(=O)[C@H](CCCCNC(=O)CC[C@H](C(=O)[O-])N2CCN(CC(=O)[O-])CCN(CC(=O)[O-])CC2)NC(=O)CCOCCOCCOCCOCCNC(=O)CCCCCN2C(=CC=C3CCCC(C=CC4=[N+](CCCCS(=O)(=O)[O-])c5ccc(S(=O)(=O)O)cc5C4(C)C)=C3Oc3ccc(S(=O)(=O)O)cc3)C(C)(C)c3cc(S(=O)(=O)O)ccc32)CC1)c1ccc2nccc(C(=O)NCC(=O)N3CC(F)(F)C[C@H]3C#N)c2c1.[67Ga+3] [[^67Ga]Ga-NODAGA-FAP800] | – | – | – | – | – | – | – | – | – | – | 0.018 | no degradation | 22
